{"source": "ChEMBL document CHEMBL1777790", "about": "“Discovery of novel HCV polymerase inhibitors using pharmacophore-based virtual screening” (Bioorg Med Chem Lett, 2011)", "key": {"[1]": {"experiment": "Cytotoxicity against human HuH7 cells", "type": "cell-based, Huh-7"}, "[2]": {"test_system": "Hepatitis C virus", "experiment": "Antiviral activity against HCV in human HuH7 cells by replicon assay", "type": "functional, organism-based", "conditions": "Huh-7; for Activity: Hepacivirus hominis"}, "[3]": {"test_system": "Hepatitis C virus subtype 1b", "experiment": "Inhibition of HCV genotype 1b NS5B RNA dependent RNA polymerase activity at 20 uM"}}, "note": "Calls of active or inactive are those of the source. No cut-off for these calls is given here.", "data": [{"smiles": "O=C(Nc1ccc2[nH]c(-c3cccnc3)nc2c1)c1ccco1", "values": [{"measurement": "CC50", "setting": "[1]", "result": 20, "unit": "µM"}, {"measurement": "Activity", "setting": "[2]", "result": "inactive"}]}, {"smiles": "CCOc1cc(NC(=O)CCl)c(OCC)cc1NC(C)=O", "values": [{"measurement": "CC50", "setting": "[1]", "result": "> 50", "unit": "µM"}]}, {"smiles": "CS(=O)(=O)N(Cc1ccccc1)c1ccc(C(=O)NCc2ccco2)cc1", "values": [{"measurement": "CC50", "setting": "[1]", "result": 32.7, "unit": "µM"}, {"measurement": "inhibition", "setting": "[3]", "result": 8, "unit": "%"}]}, {"smiles": "O=C(Nc1ccc2[nH]c(-c3ccccc3)nc2c1)c1ccco1", "values": [{"measurement": "CC50", "setting": "[1]", "result": "< 5", "unit": "µM"}, {"measurement": "Activity", "setting": "[2]", "result": "inactive"}, {"measurement": "inhibition", "setting": "[3]", "result": "inactive"}]}, {"smiles": "Cn1ncc([N+](=O)[O-])c1C(=O)Nc1ccc2[nH]c(-c3ccccc3)nc2c1", "values": [{"measurement": "CC50", "setting": "[1]", "result": 34.5, "unit": "µM"}, {"measurement": "EC50", "setting": "[2]", "result": 2.16, "unit": "µM"}, {"measurement": "inhibition", "setting": "[3]", "result": 54, "unit": "%"}]}, {"smiles": "C=C(C)C(=O)Nc1ccc(NC(=O)C(=C)C)c(OC(F)(F)C(F)F)c1", "values": [{"measurement": "CC50", "setting": "[1]", "result": 29, "unit": "µM"}, {"measurement": "Activity", "setting": "[2]", "result": "inactive"}, {"measurement": "inhibition", "setting": "[3]", "result": 48, "unit": "%"}]}, {"smiles": "CC(=O)Nc1ccc2[nH]c(-c3ccco3)nc2c1", "values": [{"measurement": "CC50", "setting": "[1]", "result": 25, "unit": "µM"}, {"measurement": "Activity", "setting": "[2]", "result": "inactive"}, {"measurement": "inhibition", "setting": "[3]", "result": 42, "unit": "%"}]}, {"smiles": "O=C(Nc1ccc2[nH]c(-c3ccc(Cl)cc3)nc2c1)C1C2CC3CC(C2)CC1C3", "note": "(centres undefined)", "values": [{"measurement": "CC50", "setting": "[1]", "result": "< 5", "unit": "µM"}, {"measurement": "Activity", "setting": "[2]", "result": "inactive"}, {"measurement": "inhibition", "setting": "[3]", "result": "inactive"}]}, {"smiles": "CC(=O)Nc1ccc2nc(-c3ccccn3)[nH]c2c1", "values": [{"measurement": "CC50", "setting": "[1]", "result": 24.8, "unit": "µM"}]}, {"smiles": "COc1cc(/C=N/Nc2nc3ccccc3s2)ccc1OC(=O)c1ccco1", "values": [{"measurement": "CC50", "setting": "[1]", "result": 30.5, "unit": "µM"}]}, {"smiles": "CCCS(=O)(=O)c1ccc2[nH]c(NC(=O)OC)nc2c1", "values": [{"measurement": "CC50", "setting": "[1]", "result": "< 5", "unit": "µM"}]}, {"smiles": "CCC(=O)Nc1ccc(SC#N)c(C(F)(F)F)c1", "values": [{"measurement": "CC50", "setting": "[1]", "result": 45.8, "unit": "µM"}, {"measurement": "inhibition", "setting": "[3]", "result": 9, "unit": "%"}]}, {"smiles": "CC(=O)Nc1ccc2[nH]c(-c3ccccn3)nc2c1", "values": [{"measurement": "Activity", "setting": "[2]", "result": "inactive"}]}, {"smiles": "O=C(Nc1cccc(Br)c1)c1ccc(Br)c(S(=O)(=O)Nc2ccccn2)c1", "values": [{"measurement": "CC50", "setting": "[1]", "result": "> 50", "unit": "µM"}]}, {"smiles": "O=C(COc1ccccc1Cl)Nc1ccc(Oc2ccc(F)cc2)c(C(F)(F)F)c1", "values": [{"measurement": "CC50", "setting": "[1]", "result": 14.2, "unit": "µM"}]}, {"smiles": "CC(=O)Nc1ccc2[nH]c(-c3cccs3)nc2c1", "values": [{"measurement": "CC50", "setting": "[1]", "result": 20, "unit": "µM"}, {"measurement": "Activity", "setting": "[2]", "result": "inactive"}, {"measurement": "inhibition", "setting": "[3]", "result": 18.5, "unit": "%"}]}, {"smiles": "Cc1ccc(C(=O)Nc2ccc(F)cc2)cc1S(=O)(=O)N1CCOCC1", "values": [{"measurement": "CC50", "setting": "[1]", "result": 16.5, "unit": "µM"}]}, {"smiles": "O=C(Nc1ccc(NC(=O)c2cccs2)cc1Cl)c1ccco1", "values": [{"measurement": "CC50", "setting": "[1]", "result": 18, "unit": "µM"}]}, {"smiles": "COC(=O)c1ccc(C(=O)Nc2ccc3[nH]c(-c4ccccc4)nc3c2)cc1", "values": [{"measurement": "CC50", "setting": "[1]", "result": "< 5", "unit": "µM"}, {"measurement": "Activity", "setting": "[2]", "result": "inactive"}, {"measurement": "inhibition", "setting": "[3]", "result": 90, "unit": "%"}]}, {"smiles": "O=C(Nc1ccc2[nH]c(-c3ccccn3)nc2c1)c1ccco1", "values": [{"measurement": "CC50", "setting": "[1]", "result": 20, "unit": "µM"}, {"measurement": "Activity", "setting": "[2]", "result": "inactive"}, {"measurement": "inhibition", "setting": "[3]", "result": 42.4, "unit": "%"}]}, {"smiles": "Cn1ncc(Cl)c1C(=O)Nc1ccc2[nH]c(-c3ccccc3)nc2c1", "values": [{"measurement": "CC50", "setting": "[1]", "result": "< 5", "unit": "µM"}, {"measurement": "Activity", "setting": "[2]", "result": "inactive"}, {"measurement": "inhibition", "setting": "[3]", "result": 14, "unit": "%"}]}, {"smiles": "O=C1NN(c2ccc(Cl)c(Cl)c2)C(=O)/C1=C/c1ccc(N2CCOCC2)c([N+](=O)[O-])c1", "values": [{"measurement": "CC50", "setting": "[1]", "result": 27, "unit": "µM"}, {"measurement": "inhibition", "setting": "[3]", "result": 13, "unit": "%"}]}, {"smiles": "CCOc1cc(NC(=O)c2ccco2)c(OCC)cc1NC(=O)CC", "values": [{"measurement": "CC50", "setting": "[1]", "result": 36.1, "unit": "µM"}]}, {"smiles": "C=CCNS(=O)(=O)c1ccc(OC)c(OC)c1", "values": [{"measurement": "CC50", "setting": "[1]", "result": 48.6, "unit": "µM"}]}, {"smiles": "O=C(Nc1ccc2[nH]c(-c3ccccc3)nc2c1)c1ccccc1", "values": [{"measurement": "CC50", "setting": "[1]", "result": 20, "unit": "µM"}, {"measurement": "Activity", "setting": "[2]", "result": "inactive"}, {"measurement": "inhibition", "setting": "[3]", "result": 20, "unit": "%"}]}, {"smiles": "COC(=O)c1ccc(C(=O)OC)c(NS(C)(=O)=O)c1", "values": [{"measurement": "CC50", "setting": "[1]", "result": 43.5, "unit": "µM"}]}, {"smiles": "Nc1ccc(C(=O)Nc2ccc3[nH]c(-c4ccccc4)nc3c2)cc1", "values": [{"measurement": "CC50", "setting": "[1]", "result": "< 5", "unit": "µM"}, {"measurement": "Activity", "setting": "[2]", "result": "inactive"}, {"measurement": "inhibition", "setting": "[3]", "result": 19.7, "unit": "%"}]}, {"smiles": "O=C(Nc1ccc(F)cc1)c1ccc(Cl)c(S(=O)(=O)N2CCOCC2)c1", "values": [{"measurement": "CC50", "setting": "[1]", "result": 15.6, "unit": "µM"}]}, {"smiles": "Cn1cc([N+](=O)[O-])c(C(=O)Nc2ccc3[nH]c(-c4ccccc4)nc3c2)n1", "values": [{"measurement": "CC50", "setting": "[1]", "result": 17.3, "unit": "µM"}, {"measurement": "EC50", "setting": "[2]", "result": 8.3, "unit": "µM"}, {"measurement": "inhibition", "setting": "[3]", "result": 37.7, "unit": "%"}]}, {"smiles": "C=CCNC(=O)c1ccc(CN(c2cccc(Cl)c2)S(C)(=O)=O)cc1", "values": [{"measurement": "CC50", "setting": "[1]", "result": 33, "unit": "µM"}]}, {"smiles": "O=C(O)CNC(=O)/C(=C\\c1cccc([N+](=O)[O-])c1)NC(=O)c1ccc(Br)o1", "values": [{"measurement": "CC50", "setting": "[1]", "result": "> 50", "unit": "µM"}]}]}
